From the supplement of paper PMC10307832

How the values were obtained:
Assay in all cases: relative viability (nuclei count vs DMSO), 5 days (fraction); higher = more cells survive
[1] = system: SK-MES-1
Procedure, shortened: (§1)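 The day after seeding in 1536-well plates, lung cancer cell lines were treated by pin tool with a single drug, or with a fixed anchor-drug dose together with five library-drug doses (not always all listed) in √10 steps. After 5 days, a combined fix-and-stain solution (final 0.05% Triton X-100, 1% formaldehyde, 1 ug/ml Hoechst) was added. Nuclei counted on 4× images gave relative viability as treated counts over vehicle counts, reported as the median of duplicate plates.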

[2] = system: PC-14
Procedure, shortened: as §1

[3] = system: NCI-H460
Procedure, shortened: as §1

[4] = system: NCI-H322M
Procedure, shortened: as §1

[5] = system: NCI-H1915
Procedure, shortened: as §1

[6] = system: NCI-H1563
Procedure, shortened: as §1

[7] = system: NCI-H1651
Procedure, shortened: as §1

[8] = system: NCI-H661
Procedure, shortened: as §1

[9] = system: NCI-H3122
Procedure, shortened: as §1

[10] = system: RERF-LC-KJ
Procedure, shortened: as §1

[11] = system: NCI-H727
Procedure, shortened: as §1

[12] = system: NCI-H2347
Procedure, shortened: as §1

[13] = system: NCI-H596
Procedure, shortened: as §1

[14] = system: LXF-289
Procedure, shortened: as §1

[15] = system: NCI-H1355
Procedure, shortened: as §1

[16] = system: NCI-H1792
Procedure, shortened: as §1

[17] = system: NCI-H1755
Procedure, shortened: as §1

[18] = system: NCI-H441
Procedure, shortened: as §1

[19] = system: LCLC-103H
Procedure, shortened: as §1

[20] = system: NCI-H520
Procedure, shortened: as §1

With `O=c1cc(N2CCOCC2)oc2c(-c3cccc4c3sc3ccccc34)cccc12` + C[C@@H](Oc1cc(-c2cnn(C3CCNCC3)c2)cnc1N)c1c(Cl)ccc(F)c1Cl [Crizotinib] (partner 1 µM) the relative viability ([1]; first compound 0.01 µM) was 0.965, the relative viability ([1]; first compound 0.03162 µM) was 0.991 and the relative viability ([1]; first compound 0.1 µM) was 1.01. It also gave a relative viability ([1]; first compound 0.3162 µM) of 1.01, a relative viability ([1]; first compound 1 µM) of 1.04 and a relative viability ([2]; first compound 0.01 µM) of 0.906. The relative viability ([2]; first compound 0.03162 µM) was 0.82, the relative viability ([2]; first compound 0.1 µM) was 0.85 and the relative viability ([2]; first compound 0.3162 µM) was 0.843. For the same compound, the relative viability ([2]; first compound 1 µM) was 0.795, the relative viability ([3]; first compound 0.01 µM) was 0.822 and the relative viability ([3]; first compound 0.03162 µM) was 0.99. The relative viability ([3]; first compound 0.1 µM) was 0.988, the relative viability ([3]; first compound 0.3162 µM) was 1.1 and the relative viability ([3]; first compound 1 µM) was 0.922. The relative viability ([4]; first compound 0.01 µM) was 0.94, the relative viability ([4]; first compound 0.03162 µM) was 0.842 and the relative viability ([4]; first compound 0.3162 µM) was 0.943. For the same compound, the relative viability ([4]; first compound 1 µM) was 0.84, the relative viability ([5]; first compound 0.01 µM) was 0.875 and the relative viability ([5]; first compound 0.03162 µM) was 0.879. For the same compound, the relative viability ([5]; first compound 0.1 µM) was 0.939, the relative viability ([5]; first compound 0.3162 µM) was 0.876 and the relative viability ([5]; first compound 1 µM) was 0.933. The relative viability ([6]; first compound 0.01 µM) was 0.809, the relative viability ([6]; first compound 0.03162 µM) was 0.795 and the relative viability ([6]; first compound 0.1 µM) was 0.848. It also gave a relative viability ([6]; first compound 0.3162 µM) of 0.711, a relative viability ([6]; first compound 1 µM) of 0.82 and a relative viability ([7]; first compound 0.01 µM) of 0.878. It also gave a relative viability ([7]; first compound 0.03162 µM) of 0.92, a relative viability ([7]; first compound 0.1 µM) of 0.948 and a relative viability ([7]; first compound 0.3162 µM) of 0.853. It also gave a relative viability ([7]; first compound 1 µM) of 0.859, a relative viability ([8]; first compound 0.01 µM) of 1.06 and a relative viability ([8]; first compound 0.03162 µM) of 0.983. The relative viability ([8]; first compound 0.1 µM) was 0.927, the relative viability ([8]; first compound 0.3162 µM) was 0.817 and the relative viability ([8]; first compound 1 µM) was 0.92. The relative viability ([9]; first compound 0.01 µM) was 0.269, the relative viability ([9]; first compound 0.03162 µM) was 0.273 and the relative viability ([9]; first compound 0.1 µM) was 0.274. The relative viability ([9]; first compound 0.3162 µM) was 0.297, the relative viability ([9]; first compound 1 µM) was 0.284 and the relative viability ([10]; first compound 0.01 µM) was 0.838. It also gave a relative viability ([10]; first compound 0.03162 µM) of 0.798, a relative viability ([10]; first compound 0.1 µM) of 0.871 and a relative viability ([10]; first compound 0.3162 µM) of 0.823. It also gave a relative viability ([10]; first compound 1 µM) of 0.808, a relative viability ([11]; first compound 0.01 µM) of 0.887 and a relative viability ([11]; first compound 0.03162 µM) of 0.893. For the same compound, the relative viability ([11]; first compound 0.1 µM) was 0.751, the relative viability ([11]; first compound 0.3162 µM) was 0.734 and the relative viability ([11]; first compound 1 µM) was 0.932. For the same compound, the relative viability ([12]; first compound 0.01 µM) was 0.805, the relative viability ([12]; first compound 0.03162 µM) was 0.661 and the relative viability ([12]; first compound 0.1 µM) was 0.739. For the same compound, the relative viability ([12]; first compound 0.3162 µM) was 0.584, the relative viability ([12]; first compound 1 µM) was 0.76 and the relative viability ([13]; first compound 0.01 µM) was 0.992. It also gave a relative viability ([13]; first compound 0.03162 µM) of 0.997, a relative viability ([13]; first compound 0.1 µM) of 0.907 and a relative viability ([13]; first compound 0.3162 µM) of 0.948. It also gave a relative viability ([13]; first compound 1 µM) of 0.882, a relative viability ([14]; first compound 0.01 µM) of 0.814 and a relative viability ([14]; first compound 0.03162 µM) of 0.806. For the same compound, the relative viability ([14]; first compound 0.1 µM) was 0.794, the relative viability ([14]; first compound 0.3162 µM) was 0.789 and the relative viability ([14]; first compound 1 µM) was 0.755. For the same compound, the relative viability ([15]; first compound 0.01 µM) was 1.17, the relative viability ([15]; first compound 0.03162 µM) was 1.12 and the relative viability ([15]; first compound 0.3162 µM) was 1.11. The relative viability ([15]; first compound 1 µM) was 0.941, the relative viability ([16]; first compound 0.01 µM) was 0.967 and the relative viability ([16]; first compound 0.03162 µM) was 0.923. The relative viability ([16]; first compound 0.1 µM) was 0.741, the relative viability ([16]; first compound 0.3162 µM) was 0.939 and the relative viability ([16]; first compound 1 µM) was 0.95. The relative viability ([17]; first compound 0.01 µM) was 0.875, the relative viability ([17]; first compound 0.03162 µM) was 0.812 and the relative viability ([17]; first compound 0.1 µM) was 0.838. The relative viability ([17]; first compound 0.3162 µM) was 0.807, the relative viability ([17]; first compound 1 µM) was 0.767 and the relative viability ([18]; first compound 0.01 µM) was 0.841. It also gave a relative viability ([18]; first compound 0.03162 µM) of 0.785, a relative viability ([18]; first compound 0.1 µM) of 1.09 and a relative viability ([18]; first compound 0.3162 µM) of 0.679. For the same compound, the relative viability ([18]; first compound 1 µM) was 0.756, the relative viability ([19]; first compound 0.01 µM) was 1.06 and the relative viability ([19]; first compound 0.03162 µM) was 0.976. The relative viability ([19]; first compound 0.1 µM) was 1.12, the relative viability ([19]; first compound 0.3162 µM) was 0.958 and the relative viability ([19]; first compound 1 µM) was 1.07. It also gave a relative viability ([20]; first compound 0.01 µM) of 0.824, a relative viability ([20]; first compound 0.03162 µM) of 0.739 and a relative viability ([20]; first compound 0.1 µM) of 1.04. It also gave a relative viability ([20]; first compound 0.3162 µM) of 0.697 and a relative viability ([20]; first compound 1 µM) of 0.825.
